# According to US20240287089A1, “Preparation and Uses of 7-Azaindenoisoquinolines” (Purdue Research Foundation, priority 0001, published 2024):
# Like-named read-outs stand apart in the source and are kept apart here.
# Experiments:
# [1] = system: γ-H2AX; assay: Western blot of RS4;11 tumor xenograft tissue; assay type: in vivo, human
# [2] = assay type: in vivo
# [3] = in vivo; assay type: in vivo
# [4] = system: γ-H2AX; assay: Western blot of RD-ES tumor xenograft tissue; assay type: in vivo, human
# Excerpt: (§1) In several cases, the levels of c-Myc were more greatly depressed at the lower dose level. For examples, see the 9-hour data for G104 in Tables 17 and 18 and the 6-hour data in Table 19. […] Overall, there are many unexpected and unexplained aspects of the data in Tables 17-19, which are highly variable and also highly dependent on cell type. In particular, drug-induced increases in c-Myc expression relative to control and the larger changes in c-Myc expression seen at lower vs. higher doses are counterintuitive and unexplained.
# [5] = system: c-Myc; assay: Western blot of RD-ES tumor xenograft tissue; assay type: in vivo, human
# Excerpt: as §1
# [6] = system: c-Myc; assay: Western blot of MOLT-4 tumor xenograft tissue; assay type: in vivo, human
# [7] = system: c-Myc; assay: Western blot of RS4;11 tumor xenograft tissue; assay type: in vivo, human
# Excerpt: as §1
# [8] = Metabolic stability in liver microsomes; settings: human liver microsomes
smiles,measurement,setting,value
"COc1cc2c3c(n(CCCNCCO)c(=O)c2cc1OC)-c1nc2c(cc1C3=O)OCO2 [G105, 6-(3-((2-Hydroxyethyl)amino)propyl)-2,3-dimethoxy-5H-[1,3]dioxolo[4″,5″:5′,6′]pyrido[3′,2′:4,5]cyclopenta[1,2-c]isoquinoline-5,12(6H)-dione]","γ-H2AX/GAPDH, % Relative to Vehicle","[1]; RS4;11, IV 10 mg/kg, 3 h",67.00 ± 2.90%
same,"γ-H2AX/GAPDH, % Relative to Vehicle","[1]; RS4;11, IV 10 mg/kg, 9 h",166.37 ± 40.45%
same,"γ-H2AX/GAPDH, % Relative to Vehicle","[1]; RS4;11, IV 20 mg/kg, 3 h",219.29 ± 82.49%
same,"γ-H2AX/GAPDH, % Relative to Vehicle","[1]; RS4;11, IV 20 mg/kg, 9 h",540.94 ± 97.90%
same,Mean Tumor/Plasma Ratio,"[2]; MOLT-4, 3 h, IV 10 mg/kg",50 ± 13.4
same,Mean Tumor/Plasma Ratio,"[2]; MOLT-4, 9 h, IV 10 mg/kg",357 ± 180
same,Mean Tumor/Plasma Ratio,"[2]; MOLT-4, 9 h, IV 20 mg/kg",326 ± 102
same,Mean Tumor/Plasma Ratio,"[3]; RS4;11, 3 h, IV 10 mg/kg",62.3 ± 17.7
same,Mean Tumor/Plasma Ratio,"[3]; RS4;11, 3 h, IV 20 mg/kg",111 ± 18
same,Mean Tumor/Plasma Ratio,"[3]; RS4;11, 9 h, IV 10 mg/kg",185 ± 25
same,Mean Tumor/Plasma Ratio,"[3]; RS4;11, 9 h, IV 20 mg/kg",383 ± 183
same,"γ-H2AX/GAPDH, % Relative to Vehicle","[4]; IV 10 mg/kg, 3 h",145.80 ± 32.79%
same,"γ-H2AX/GAPDH, % Relative to Vehicle","[4]; IV 10 mg/kg, 6 h",111.73 ± 14.44%
same,"γ-H2AX/GAPDH, % Relative to Vehicle","[4]; IV 20 mg/kg, 3 h",134.62 ± 18.03%
same,"γ-H2AX/GAPDH, % Relative to Vehicle","[4]; IV 20 mg/kg, 6 h",109.81 ± 27.72%
same,"c-Myc/GAPDH, % Relative to Vehicle","[5]; IV 10 mg/kg, 3 h",128.18 ± 13.67%
same,"c-Myc/GAPDH, % Relative to Vehicle","[5]; IV 10 mg/kg, 6 h",69.45 ± 15.02%
same,"c-Myc/GAPDH, % Relative to Vehicle","[5]; IV 20 mg/kg, 3 h",154.98 ± 17.80%
same,"c-Myc/GAPDH, % Relative to Vehicle","[5]; IV 20 mg/kg, 6 h",71.97 ± 14.55%
same,"c-Myc/GAPDH, % Relative to Vehicle","[6]; MOLT-4, IV 10 mg/kg, 3 h",110.56 ± 4.90%
same,"c-Myc/GAPDH, % Relative to Vehicle","[6]; MOLT-4, IV 10 mg/kg, 9 h",84.53 ± 6.26%
same,"c-Myc/GAPDH, % Relative to Vehicle","[6]; MOLT-4, IV 20 mg/kg, 3 h",96.74 ± 9.71%
same,"c-Myc/GAPDH, % Relative to Vehicle","[6]; MOLT-4, IV 20 mg/kg, 9 h",83.89 ± 10.06%
same,"c-Myc/GAPDH, % Relative to Vehicle","[7]; RS4;11, IV 10 mg/kg, 3 h",102.74 ± 3.45%
same,"c-Myc/GAPDH, % Relative to Vehicle","[7]; RS4;11, IV 10 mg/kg, 9 h",74.98 ± 3.52%
same,"c-Myc/GAPDH, % Relative to Vehicle","[7]; RS4;11, IV 20 mg/kg, 3 h",100.30 ± 16.76%
same,"c-Myc/GAPDH, % Relative to Vehicle","[7]; RS4;11, IV 20 mg/kg, 9 h",80.45 ± 3.93%
same,Scaled-up CLint,[8],7.67 mL/min/kg
same,in vitro CLint,[8],6.12 μL/min/mg protein
same,T1/2,[8]; 1 μM,3.7753 h
